One block for each molecule: values may come before it.
Biological target: T1, human MDM2 (GST-hMDM2 1-188), interaction with biotinylated-p53 (1-83) (Homo sapiens, UniProt Q00987)
T1 construct: Amino acid residues 1-188 of human MDM2 were expressed; made in house; host or cells: Escherichia coli
Experiment: improved HTRF assay (HTRF2 assay), inhibition of HDM2-p53 interaction
Type: binding
Settings: 0.2 nM GST-hMDM2, 0.5 nM biotinylated-p53, 100 mM KF
Outline: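 GST-hMDM2 preincubated 20 min at RT with serially diluted compound, then biotinylated p53 (1-83, E. coli) added for 60 min. Detection with SA-XLent, anti-GST cryptate and KF, equilibrated >4 h; final DMSO 2%. TR-FRET read; % inhibition calculated relative to nutlin-3.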

T1 sequence (Q00987 1-188): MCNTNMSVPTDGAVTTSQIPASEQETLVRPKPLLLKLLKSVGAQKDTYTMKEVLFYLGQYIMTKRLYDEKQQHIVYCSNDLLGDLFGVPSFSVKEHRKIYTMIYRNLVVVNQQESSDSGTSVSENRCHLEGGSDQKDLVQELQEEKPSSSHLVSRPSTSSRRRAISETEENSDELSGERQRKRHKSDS

SMILES: C[C@@H](CS(=O)(=O)C(C)(C)C)N1C(=O)[C@H](CC(=O)NO)O[C@H](c2cccc(Cl)c2)[C@H]1c1ccc(Cl)cc1 (single isomer, unassigned) [Example 229, 2-((2S,5R,6R)-4-((S)-1-(tert-butylsulfonyl)propan-2-yl)-6-(3-chlorophenyl)-5-(4-chlorophenyl)-3-oxomorpholin-2-yl)-N-hydroxyacetamide or 2-((2R,5R,6R)-4-((S)-1-(tert-butylsulfonyl)propan-2-yl)-6-(3-chlorophenyl)-5-(4-chlorophenyl)-3-oxomorpholin-2-yl)-N-hydroxyacetamide]
- IC50: 8 nM

SMILES: C[C@@H](CS(=O)(=O)C(C)(C)C)N1C(=O)[C@@H](CC(=O)NO)O[C@H](c2cccc(Cl)c2)[C@H]1c1ccc(Cl)cc1 (single isomer, unassigned) [Example 230, 2-((2R,5R,6R)-4-((S)-1-(tert-butylsulfonyl)propan-2-yl)-6-(3-chlorophenyl)-5-(4-chlorophenyl)-3-oxomorpholin-2-yl)-N-hydroxyacetamide or 2-((2S,5R,6R)-4-((S)-1-(tert-butylsulfonyl)propan-2-yl)-6-(3-chlorophenyl)-5-(4-chlorophenyl)-3-oxomorpholin-2-yl)-N-hydroxyacetamide]
- IC50: 7 nM

SMILES: C[C@@H](CS(=O)(=O)C(C)(C)C)N1C(=O)[C@H](CC(=O)N(C)C)O[C@H](c2cccc(Cl)c2)[C@H]1c1ccc(Cl)cc1 (single isomer, unassigned) [Example 231, 2-((2S,5R,6R)-4-((S)-1-(tert-butylsulfonyl)propan-2-yl)-6-(3-chlorophenyl)-5-(4-chlorophenyl)-3-oxomorpholin-2-yl)-N,N-dimethylacetamide or 2-((2R,5R,6R)-4-((S)-1-(tert-butylsulfonyl)propan-2-yl)-6-(3-chlorophenyl)-5-(4-chlorophenyl)-3-oxomorpholin-2-yl)-N,N-dimethylacetamide]
- IC50: 16 nM

SMILES: C[C@@H](CS(=O)(=O)C(C)(C)C)N1C(=O)[C@@H](CC(=O)N(C)C)O[C@H](c2cccc(Cl)c2)[C@H]1c1ccc(Cl)cc1 (single isomer, unassigned) [Example 232, 2-((2R,5R,6R)-4-((S)-1-(tert-butylsulfonyl)propan-2-yl)-6-(3-chlorophenyl)-5-(4-chlorophenyl)-3-oxomorpholin-2-yl)-N,N-dimethylacetamide or 2-((2S,5R,6R)-4-((S)-1-(tert-butylsulfonyl)propan-2-yl)-6-(3-chlorophenyl)-5-(4-chlorophenyl)-3-oxomorpholin-2-yl)-N,N-dimethylacetamide]
- IC50: 31 nM

SMILES: C[C@@H](CS(=O)(=O)C(C)(C)C)N1C(=O)[C@H](CC(=O)NCCO)O[C@H](c2cccc(Cl)c2)[C@H]1c1ccc(Cl)cc1 (single isomer, unassigned) [Example 233, 2-((2S,5R,6R)-4-((S)-1-(tert-butylsulfonyl)propan-2-yl)-6-(3-chlorophenyl)-5-(4-chlorophenyl)-3-oxomorpholin-2-yl)-N-(2-hydroxyethyl)acetamide or 2-((2R,5R,6R)-4-((S)-1-(tert-butylsulfonyl)propan-2-yl)-6-(3-chlorophenyl)-5-(4-chlorophenyl)-3-oxomorpholin-2-yl)-N-(2-hydroxyethyl)acetamide]
- IC50: 6 nM

SMILES: C[C@@H](CS(=O)(=O)C(C)(C)C)N1C(=O)[C@@H](CC(=O)NCCO)O[C@H](c2cccc(Cl)c2)[C@H]1c1ccc(Cl)cc1 (single isomer, unassigned) [Example 234, 2-((2R,5R,6R)-4-((S)-1-(tert-butylsulfonyl)propan-2-yl)-6-(3-chlorophenyl)-5-(4-chlorophenyl)-3-oxomorpholin-2-yl)-N-(2-hydroxyethyl)acetamide or 2-((2S,5R,6R)-4-((S)-1-(tert-butylsulfonyl)propan-2-yl)-6-(3-chlorophenyl)-5-(4-chlorophenyl)-3-oxomorpholin-2-yl)-N-(2-hydroxyethyl)acetamide]
- IC50: 15 nM

SMILES: C[C@@H](CS(=O)(=O)C(C)(C)C)N1C(=O)[C@H](CC(=O)N2CCOCC2)O[C@H](c2cccc(Cl)c2)[C@H]1c1ccc(Cl)cc1 (single isomer, unassigned) [Example 235, (2S,5R,6R)-4-((S)-1-(tert-butylsulfonyl)propan-2-yl)-6-(3-chlorophenyl)-5-(4-chlorophenyl)-2-(2-morpholino-2-oxoethyl)morpholin-3-one or (2R,5R,6R)-4-((S)-1-(tert-butylsulfonyl)propan-2-yl)-6-(3-chlorophenyl)-5-(4-chlorophenyl)-2-(2-morpholino-2-oxoethyl)morpholin-3-one]
- IC50: 11 nM

SMILES: C[C@@H](CS(=O)(=O)C(C)(C)C)N1C(=O)[C@@H](CC(=O)N2CCOCC2)O[C@H](c2cccc(Cl)c2)[C@H]1c1ccc(Cl)cc1 (single isomer, unassigned) [Example 236, (2R,5R,6R)-4-((S)-1-(tert-butylsulfonyl)propan-2-yl)-6-(3-chlorophenyl)-5-(4-chlorophenyl)-2-(2-morpholino-2-oxoethyl)morpholin-3-one or (2S,5R,6R)-4-((S)-1-(tert-butylsulfonyl)propan-2-yl)-6-(3-chlorophenyl)-5-(4-chlorophenyl)-2-(2-morpholino-2-oxoethyl)morpholin-3-one]
- IC50: 22 nM

- IC50: 3 nM
SMILES: C[C@@H](CS(=O)(=O)C(C)(C)C)N1C(=O)[C@H](CC(=O)NS(C)(=O)=O)O[C@H](c2cccc(Cl)c2)[C@H]1c1ccc(Cl)cc1 (single isomer, unassigned) [Example 237]

- IC50: 1 nM
SMILES: C[C@@H](CS(=O)(=O)C(C)(C)C)N1C(=O)[C@@H](CC(=O)NS(C)(=O)=O)O[C@H](c2cccc(Cl)c2)[C@H]1c1ccc(Cl)cc1 (single isomer, unassigned) [Example 238]

SMILES: CC[C@@H](CN(c1ccccc1F)S(=O)(=O)C1CC1)N1C(=O)[C@H](CC(=O)NS(C)(=O)=O)O[C@H](c2cccc(Cl)c2)[C@H]1c1ccc(Cl)cc1 (single isomer, unassigned) [Example 239, 2-((2S,5R,6R)-6-(3-chlorophenyl)-5-(4-chlorophenyl)-4-((S)-1-(N-(2-fluorophenyl)cyclopropanesulfonamido)butan-2-yl)-3-oxomorpholin-2-yl)-N-(methylsulfonyl)acetamide or 2-((2R,5R,6R)-6-(3-chlorophenyl)-5-(4-chlorophenyl)-4-((S)-1-(N-(2-fluorophenyl)cyclopropanesulfonamido)butan-2-yl)-3-oxomorpholin-2-yl)-N-(methylsulfonyl)acetamide]
- IC50: < 1 nM

SMILES: CC[C@@H](CN(c1ccccc1F)S(=O)(=O)C1CC1)N1C(=O)[C@@H](CC(=O)NS(C)(=O)=O)O[C@H](c2cccc(Cl)c2)[C@H]1c1ccc(Cl)cc1 (single isomer, unassigned) [Example 240, 2-((2R,5R,6R)-6-(3-chlorophenyl)-5-(4-chlorophenyl)-4-((S)-1-(N-(2-fluorophenyl)cyclopropanesulfonamido)butan-2-yl)-3-oxomorpholin-2-yl)-N-(methylsulfonyl)acetamide or 2-((2S,5R,6R)-6-(3-chlorophenyl)-5-(4-chlorophenyl)-4-((S)-1-(N-(2-fluorophenyl)cyclopropanesulfonamido)butan-2-yl)-3-oxomorpholin-2-yl)-N-(methylsulfonyl)acetamide]
- IC50: 11 nM

SMILES: CC[C@@H](CN(c1ccccc1F)S(=O)(=O)C1CC1)N1C(=O)[C@H](CC(N)=O)O[C@H](c2cccc(Cl)c2)[C@H]1c1ccc(Cl)cc1 (single isomer, unassigned) [Example 241, 2-((2S,5R,6R)-6-(3-chlorophenyl)-5-(4-chlorophenyl)-4-((S)-1-(N-(2-fluorophenyl)cyclopropanesulfonamido)butan-2-yl)-3-oxomorpholin-2-yl)acetamide or 2-((2R,5R,6R)-6-(3-chlorophenyl)-5-(4-chlorophenyl)-4-((S)-1-(N-(2-fluorophenyl)cyclopropanesulfonamido)butan-2-yl)-3-oxomorpholin-2-yl)acetamide]
- IC50: 1 nM

SMILES: CC[C@@H](CN(c1ccccc1F)S(=O)(=O)C1CC1)N1C(=O)[C@@H](CC(N)=O)O[C@H](c2cccc(Cl)c2)[C@H]1c1ccc(Cl)cc1 (single isomer, unassigned) [Example 242, 2-((2R,5R,6R)-6-(3-chlorophenyl)-5-(4-chlorophenyl)-4-((S)-1-(N-(2-fluorophenyl)cyclopropanesulfonamido)butan-2-yl)-3-oxomorpholin-2-yl)acetamide or 2-((2S,5R,6R)-6-(3-chlorophenyl)-5-(4-chlorophenyl)-4-((S)-1-(N-(2-fluorophenyl)cyclopropanesulfonamido)butan-2-yl)-3-oxomorpholin-2-yl)acetamide]
- IC50: 2 nM

SMILES: CC[C@@H](CN(C)S(=O)(=O)C1CC1)N1C(=O)[C@@H](Cc2nnn[nH]2)O[C@H](c2cccc(Cl)c2)[C@H]1c1ccc(Cl)cc1 (single isomer, unassigned) [Example 243, N-((S)-2-((2R,5R,6R)-2-((1H-tetrazol-5-yl)methyl)-6-(3-chlorophenyl)-5-(4-chlorophenyl)-3-oxomorpholino)butyl)-N-methylcyclopropanesulfonamide or N-((S)-2-((2S,5R,6R)-2-((1H-tetrazol-5-yl)methyl)-6-(3-chlorophenyl)-5-(4-chlorophenyl)-3-oxomorpholino)butyl)-N-methylcyclopropanesulfonamide]
- IC50: 1 nM

SMILES: CC[C@@H](CN(C)S(=O)(=O)C1CC1)N1C(=O)[C@H](Cc2nnn[nH]2)O[C@H](c2cccc(Cl)c2)[C@H]1c1ccc(Cl)cc1 (single isomer, unassigned) [Example 244, N-((S)-2-((2S,5R,6R)-2-((1H-tetrazol-5-yl)methyl)-6-(3-chlorophenyl)-5-(4-chlorophenyl)-3-oxomorpholino)butyl)-N-methylcyclopropanesulfonamide or N-((S)-2-((2R,5R,6R)-2-((1H-tetrazol-5-yl)methyl)-6-(3-chlorophenyl)-5-(4-chlorophenyl)-3-oxomorpholino)butyl)-N-methylcyclopropanesulfonamide]
- IC50: 1 nM
